The text below walks through data of US20110086759A1, “CHEMICAL COMPOUNDS” (SYNGENTA CROP PROTECTION, INC., priority 2007, published 2011).

What all share (format): in vivo
Test [1] concerns Ipomea hederaceae (IPOHE). Description: Post-emergence biological efficacy, glasshouse pot test. The note with it: Ipomoea hederacea, 312 h, evaluated after 13 days (100=total damage; 0=no damage), read-out: Percentage damage caused to weed species, IPOHE; for pest or weed control at 1000 g/ha: post-emergence, 1,000 g/ha. The gist of the method: (§1)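 Pot-grown weeds were sprayed 8 days after sowing with test compound in acetone/water (50:50) with 0.5% Tween 20 at 1000 or 250 g/ha. Glasshouse at 24/16° C day/night, 14 h light, 65% humidity. Damage scored 0-100 (100 = total damage) after 13 days.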

Test [2] relates to Setaria faberi (SETFA). The description is as above. The conditions noted are these: 312 h, evaluated after 13 days (100=total damage; 0=no damage), read-out: Percentage damage caused to weed species, SETFA; for pest or weed control at 1000 g/ha: post-emergence, 1,000 g/ha. The gist of the method: as §1
Test [3] has as its system Echinochloa crus-galli (ECHCG). The description is as above. The conditions noted are these: 312 h, evaluated after 13 days (100=total damage; 0=no damage), read-out: Percentage damage caused to weed species, ECHCG; for pest or weed control at 1000 g/ha: post-emergence, 1,000 g/ha. The gist of the method: as §1
The test system of test [4] is Alopecurus myosuroides (ALOMY). The test is described as above. The note with it: 312 h, evaluated after 13 days (100=total damage; 0=no damage), read-out: Percentage damage caused to weed species, ALOMY; for pest or weed control at 1000 g/ha: post-emergence, 1,000 g/ha. The gist of the method: as §1
Test [5] deals with Solanum nigrum (SOLNI). The test is described as above. The note with it: 312 h, evaluated after 13 days (100=total damage; 0=no damage), read-out: Percentage damage caused to weed species, SOLNI; for pest or weed control at 1000 g/ha: post-emergence, 1,000 g/ha. The gist of the method: as §1
For test [6], the system named is Amaranthus retoflexus (AMARE). Described as above. The conditions noted are these: Amaranthus retroflexus, 312 h, evaluated after 13 days (100=total damage; 0=no damage), read-out: Percentage damage caused to weed species, AMARE; for pest or weed control at 1000 g/ha: post-emergence, 1,000 g/ha. The gist of the method: as §1
In test [7] the test system is Ipomea hederaceae (IPOHE). The test is described as follows: Pre-emergence biological efficacy, glasshouse pot test. The note with it: Ipomoea hederacea, 312 h, evaluated after 13 days (100=total damage; 0=no damage), read-out: Percentage damage IPOHE; for pest or weed control at 1000 g/ha: pre-emergence, 1,000 g/ha. The gist of the method: (§2)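 Damage rated 0–100 (100 = total kill) 13 days post-spray. Pots of standard soil were sown and sprayed after one day with test compound at 1000 or 250 g/ha in acetone/water (50:50) plus 0.5% Tween 20.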

Test [8] relates to Setaria faberi (SETFA). The test is described as above. The note with it: 312 h, evaluated after 13 days (100=total damage; 0=no damage), read-out: Percentage damage SETFA; for pest or weed control at 1000 g/ha: pre-emergence, 1,000 g/ha. The gist of the method:
as §2

Test [9] has as its system Echinochloa crus-galli (ECHCG). Described as above. The conditions noted are these: 312 h, evaluated after 13 days (100=total damage; 0=no damage), read-out: Percentage damage ECHCG; for pest or weed control at 1000 g/ha: pre-emergence, 1,000 g/ha. The gist of the method:
as §2

In test [10] the test system is Alopecurus myosuroides (ALOMY). The test is described as above. The conditions noted are these: 312 h, evaluated after 13 days (100=total damage; 0=no damage), read-out: Percentage damage ALOMY; for pest or weed control at 1000 g/ha: pre-emergence, 1,000 g/ha. The gist of the method:
as §2

Test [11] relates to Solanum nigrum (SOLNI). The test is described as above. The note with it: 312 h, evaluated after 13 days (100=total damage; 0=no damage), read-out: Percentage damage SOLNI; for pest or weed control at 1000 g/ha: pre-emergence, 1,000 g/ha. The gist of the method: as §2
Test [12] deals with Amaranthus retoflexus (AMARE). The test is described as above. The conditions noted are these: Amaranthus retroflexus, 312 h, evaluated after 13 days (100=total damage; 0=no damage), read-out: Percentage damage AMARE; for pest or weed control at 1000 g/ha: pre-emergence, 1,000 g/ha. The gist of the method: as §2

On to `COC(=O)c1nc(C2CC2)nc(NCC2CCN(OC(=O)C(C)(C)C)CC2)c1Cl` [Compound 4-58], for which the pest or weed control at 1000 g/ha was determined as 50% in test [1]; 50% in the test with Setaria faberi (SETFA) [2]; 40% in test [3]; 0% in [4]; 70% with Solanum nigrum (SOLNI) [5]; 70% in test [6]. The pest or weed control at 1000 g/ha came out at 20% in test [7]; 0% in the test with Setaria faberi (SETFA) [8]; 0% in test [9]; 0% in test [10]; 30% in the test with Solanum nigrum (SOLNI) [11]; 80% in [12].

As to `COC(=O)c1nc(C2CC2)nc(NCC2(O)CCc3ccc(OC)cc32)c1Cl` (stereo not drawn) [Compound 4-59, 5-Chloro-2-cyclopropyl-4-[(1-hydroxy-6-methoxyindan-1-yl)methylamino]-6-methoxycarbonyl-pyrimidine], the pest or weed control at 1000 g/ha in [1] was 100%; with Setaria faberi (SETFA) [2] it was 80%; in test [3], 60%; in [4], 50%; in the test on Solanum nigrum (SOLNI) [5] it was 100%; in test [6] it was 100%. In addition, the pest or weed control at 1000 g/ha was 80% in test [7]; 10% in the test on Setaria faberi (SETFA) [8]; 40% in test [9]; 20% in test [10]; 80% with Solanum nigrum (SOLNI) [11]; 80% in test [12].

`COC(=O)c1nc(C2CC2)nc(NCc2ccccc2)c1Cl` [Compound 4-60, 5-chloro-2-cyclopropyl-6-methoxycarbonyl-4-phenylmethylaminopyrimidine]: the pest or weed control at 1000 g/ha in test [1] worked out at 100%; with Setaria faberi (SETFA) [2] it was 90%; in test [3], 90%; in test [4], 20%; with Solanum nigrum (SOLNI) [5] it was 100%; in [6] it was 100%. For the same compound, the pest or weed control at 1000 g/ha in test [7] amounted to 60%; with Setaria faberi (SETFA) [8] it was 30%; in [9], 0%; in test [10] it was 0%; with Solanum nigrum (SOLNI) [11], 50%; in [12], 60%.

For the compound `COC(=O)c1nc(C2CC2)nc(NCc2cccc(Cl)c2)c1Cl` [Compound 4-62], the pest or weed control at 1000 g/ha in [1] amounted to 100%; in the test on Setaria faberi (SETFA) [2], 90%; in test [3] it was 70%; in test [4], 30%; with Solanum nigrum (SOLNI) [5] it was 100%; in [6], 100%. In addition, the pest or weed control at 1000 g/ha in test [7] was 60%; with Setaria faberi (SETFA) [8], 10%; in test [9] it was 20%; in test [10], 10%; in the test with Solanum nigrum (SOLNI) [11], 90%; in [12], 100%.

Turning to `COC(=O)c1nc(C2CC2)nc(NCc2ccc(Cl)cc2)c1Cl` [Compound 4-63, 5-Chloro-4-(4-chlorophenylmethyl-amino)-2-cyclopropyl-6-methoxycarbonyl-pyrimidine], the pest or weed control at 1000 g/ha was found to be 80% in test [1]; 80% with Setaria faberi (SETFA) [2]; 50% in test [3]; 40% in test [4]; 90% in the test on Solanum nigrum (SOLNI) [5]; 100% in [6]. For the same compound, the pest or weed control at 1000 g/ha in test [7] was determined as 60%; in the test with Setaria faberi (SETFA) [8] it was 20%; in [9], 20%; in test [10], 20%; in the test on Solanum nigrum (SOLNI) [11] it was 60%; in test [12], 60%.

`COC(=O)c1nc(C2CC2)nc(NCc2cccc(F)c2)c1Cl` [Compound 4-65, 5-Chloro-2-cyclopropyl-4-(3-fluorophenylmethyl-amino)-6-methoxycarbonyl-pyrimidine]: the pest or weed control at 1000 g/ha stood at 100% in [1]; 100% in the test on Setaria faberi (SETFA) [2]; 80% in test [3]; 20% in [4]; 100% in the test on Solanum nigrum (SOLNI) [5]; 100% in test [6]. In addition, the pest or weed control at 1000 g/ha came out at 70% in test [7]; 40% in the test on Setaria faberi (SETFA) [8]; 60% in test [9]; 20% in [10]; 80% with Solanum nigrum (SOLNI) [11]; 80% in test [12].

In the case of `COC(=O)c1nc(C2CC2)nc(NCc2ccc(F)cc2)c1Cl` [Compound 4-66, 5-Chloro-2-cyclopropyl-4-(4-fluorophenyl-methylamino)-6-methoxy-carbonylpyrimidine], the pest or weed control at 1000 g/ha is 100% in [1]; 90% in the test on Setaria faberi (SETFA) [2]; 70% in test [3]; 20% in [4]; 100% in the test on Solanum nigrum (SOLNI) [5]; 100% in [6]. Further, the pest or weed control at 1000 g/ha in [7] was 90%; in the test with Setaria faberi (SETFA) [8], 80%; in test [9], 50%; in [10] it was 40%; in the test with Solanum nigrum (SOLNI) [11] it was 90%; in test [12] it was 90%.

Regarding `COC(=O)c1nc(C2CC2)nc(NCc2ccccc2Br)c1Cl` [Compound 4-67, 4-(2-Bromophenyl-methylamino)-5-chloro-2-cyclopropyl-6-methoxycarbonyl-pyrimidine], the pest or weed control at 250 g/ha was 80% in [1] (post-emergence, 250 g/ha); 70% in the test with Setaria faberi (SETFA) [2] (post-emergence, 250 g/ha); 50% in test [3] (post-emergence, 250 g/ha); 20% in [4] (post-emergence, 250 g/ha); 90% with Solanum nigrum (SOLNI) [5] (post-emergence, 250 g/ha); 90% in test [6] (post-emergence, 250 g/ha). Also, the pest or weed control at 250 g/ha in test [7] (pre-emergence, 250 g/ha) is 0%; in the test with Setaria faberi (SETFA) [8] (pre-emergence, 250 g/ha), 0%; in test [9] (pre-emergence, 250 g/ha), 0%; in test [10] (pre-emergence, 250 g/ha), 0%; with Solanum nigrum (SOLNI) [11] (pre-emergence, 250 g/ha) it was 20%; in [12] (pre-emergence, 250 g/ha), 40%.
